Results on one compound are retold here after US9296760B2, “Antibacterial compounds” (JANSSEN SCIENCES IRELAND UC, priority 2012, dated 2016).

The target of data set [1] is T1, S. aureus ATCC 29213 FabI (Staphylococcus aureus, UniProt Q6GI75).
T1 sequence (Q6GI75 1-256): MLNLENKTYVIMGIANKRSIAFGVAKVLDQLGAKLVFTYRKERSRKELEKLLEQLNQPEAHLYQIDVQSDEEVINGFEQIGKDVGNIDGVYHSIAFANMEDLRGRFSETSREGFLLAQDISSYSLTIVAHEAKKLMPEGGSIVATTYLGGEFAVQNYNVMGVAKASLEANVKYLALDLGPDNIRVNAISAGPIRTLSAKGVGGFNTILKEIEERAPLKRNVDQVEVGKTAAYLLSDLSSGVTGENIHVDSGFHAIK
Description: Staphylococcus aureus FabI enzyme inhibition assay. The format is biochemical. To be noted: NADH consumption, 30 minutes, read-out: FabI (300.235) IC50 (converted). The essentials: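 Incubation ran 30 min at room temperature, then was stopped by a pH shift with 200 mM Tris pH 9.0. NADH consumption was read as absorbance at 340. Percent inhibition was taken against no-compound and no-enzyme controls, and IC50 (µg/ml) came from a least-squares fitted curve.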

For data set [2], the system named is Staphylococcus aureus ATCC 29213. Description: Antibacterial susceptibility testing, IC90 determination (broth microdilution, resazurin). The format is cell-based. To be noted: Staphylococcus aureus, ATCC29213, S. aureus ATCC 29213; 90% inhibitory concentration for bacterial growth; read-out: STA (361.159) IC90. The essentials:
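Broth microdilution in Mueller-Hinton broth, 5×10^5 CFU/ml inoculum, two-fold compound dilutions typically 63–0.49 μM, 1.25% DMSO, 10% human serum where stated, 35 °C for 16–20 h. Growth read fluorometrically after resazurin addition (ex 540/em 590 nm). IC90 (μg/ml) is the concentration giving 90% growth inhibition.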
On the technique in general: In broth dilution the organism is exposed to a series of concentrations in liquid medium.

The test system of data set [3] is S. aureus. Description: Antibacterial susceptibility testing, IC90 determination with 10% human serum. The class given is cell-based, Staphylococcus aureus. The following applies: Staphylococcus aureus, S. aureus with human serum at final concentration of 10%; read-out: STA + 10% HS (361.169) IC90. The essentials: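 Broth microdilution in Mueller Hinton broth with 10% human serum (final) and 5×10^5 CFU/ml S. aureus. Compounds tested typically 63–0.49 μM, with 1.25% DMSO final, and incubated 16–20 h at 35 °C. Growth read by resazurin fluorescence (ex 540/em 590 nm); IC90 in μg/ml.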

For data set [4], the system named is Human HelaM cells. Description: Cytotoxicity MTT assay. The following applies: 72 hours. The class given is cell-based. The essentials: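 HelaM cells exposed to serial dilutions (typically 25–0.8 μM, 0.5% DMSO final) for 72 h at 37 °C, 5% CO2. MTT formazan dissolved in 2-propanol, absorbance 540 nm minus 690 nm; CC50 is concentration giving 50% loss of viability.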
On the technique in general: Tetrazolium dyes change colour on reduction, which living cells bring about.

A word on the IC50: it is the midpoint of a concentration-inhibition curve. A word on the IC90: it is the concentration at which the effect reaches the 90% level. What is called melting point is the temperature of the solid-liquid transition.

In brackets after ≈: the same amount, converted by molar mass.

As to `CN1CC(=O)Nc2ncc(/C=C/C(=O)N3CCC=C(c4ccccc4)CC3)cc2C1` [compound 38], the melting point amounted to 198.79 °C. In addition, the IC50 in data set [1] is 820 nM. Moreover, the IC90 in data set [2] came out at 0.5 µg/mL (≈ 1.24 µM). In addition, the IC90 in data set [3] stood at 0.46 µg/mL. Besides, the “HELAM (222.125) CC50” value in data set [4] is more than 10.11 µg/mL.
